From patent publication US20030229132A1, “Small molecule modulators of apoptosis” (priority 2002, published 2003) come the findings set out here.

The test system of test [1] is NCI-H23. Description: Cell viability, NCI-H23. As to conditions: NCI-H23, lung. It counts as cell-based, human.
Test [2] concerns SK-OV-3. In words: Cell viability, SK-OV-3. The test is classed as cell-based. The source says: (§1) Normal cell lines include peripheral blood lymphocytes (PBL) isolated from donated human blood, non-transformed mammary fibroblasts (MCF-10A), human mammary epithelial cells (HMEC), human umbilical vein endothelial cells (HUVEC), and human prostate epithelial cells (PREC). Transformed cell lines include cell lines from leukemia, breast, lung, ovarian, and epidermal cancers (Table 1).

Test [3] deals with Jurkat cells transfected with Apaf-1 siRNA. Description: Viability of Jurkat cells transfected with Apaf-1 siRNA (MTT test). The test is classed as cell-based, human. The note with it: 20 nM Apaf-1 siRNA 48 hr, then 24 hr incubation. On the procedure: (§2) (A) Jurkat cells were transfected with 20 nM Apaf-1 siRNA for 48 hr and half the cells were lysed and probed with antibodies to Apaf-1, caspase-9, and caspase-3. The other half of the cells was incubated with varying concentrations of (B), compound 2 or (C), Fas ligand for 24 hr and assayed for viability by MTT test. (D) SK-OV-3 cells were transiently transfected with Apaf-1 or vector control for 24 hr and then incubated with vary concentrations of compound 2 and assayed for viability. (E) Cyto c was titrated into SK-OV-3 cell lysate in the presence of 300 μM dATP, with or without 150 nM purified Apaf-1 and 20 μM compound 2 as indicated.
In order to verify that compound 2 targets the apoptosome as a function of its cytotoxic activity, small interfering RNA (siRNA) was used to silence the expression of Apaf-1 in Jurkat cells. Sense and anti-sense oligonucleotides corresponding to nucleotides 978-998 of Apaf-1 (([…]) as reported by Lassus et al. Science 297, 1352-4. (2002)), were purchased from Dharmacon. Transfection of siRNA into Jurkat cells was accomplished using GeneSilencer (Gene Therapy Systems) according to manufacturer's instructions. There was a significant decrease in the level of expression of Apaf-1 48 hr after transfection of an Apaf-1 specific siRNA, without affecting the expression of caspases in the pathway (FIG. 5A).

In test [4] the test system is A431. Description: Cell viability, A431. The test is classed as cell-based. As to conditions: A431, epidermal.
Text: as §1

The test system of test [5] is human umbilical vein endothelial cells (HUVEC). In words: Cell viability, HUVEC. It counts as cell-based. As to conditions: normal cell.
Text: as §1

Test [6] has as its system human mammary epithelial cells (HMEC). Description: Cell viability, HMEC. It counts as cell-based.
In test [7] the test system is procaspase-3 processing. In words: Procaspase-3 processing in SK-OV-3 cell lysate with purified Apaf-1. It counts as biochemical. The note with it: 20 μM compound, 150 nM purified Apaf-1, 300 μM dATP. On the procedure: as §2
If silencing Apaf-1 in Jurkat cells make them resistant to compound 2 induced apoptosis, then it would be expected that ectopic expression of wildtype Apaf-1 in an Apaf-1 deficient cell line should render cells sensitive to compound 2. As mentioned above, the ovarian cancer cell line SK-OV-3 is deficient in Apaf-1 activity and is resistant to compound 2. Apaf-i was cloned into pcDNA-3 and transiently transfected into SK-OV-3 cells using Fugene (Roche) according to the manufacturer's instructions. Transient transfection of Apaf-1 into SK-OV-3 cells rendered them sensitive to compound 2 cytotoxicity as compared to the vector control (FIG. 5D). […]

Test [8] concerns MDA-MB-468. Description: Cell viability, MDA-MB-468. As to conditions: MDA-MB-468, breast. The test is classed as cell-based.
Text: as §1

Test [9] concerns MCF-7. Description: Cell viability, MCF-7. The test is classed as cell-based.
Text: as §1

Test [10] deals with Molt-4. In words: Cell viability, Molt-4. It counts as cell-based, human. The note with it: Molt-4, leukemia.
Text: (§3) Samples were then probed by immunoblot for (A) caspase-3 activation or (B) cleavage of PARP. (C) DNA fragmentation analysis. […] The DNA was isolated by phenol/chloroform extraction, separated on a 2% agarose gel and visualized by ethidium bromide staining. Cell viability assay.
as §1

The subject of test [11] is Jurkat cells. In words: Cell viability by MTT test, Jurkat. The test is classed as cell-based, human. On the procedure:
as §3
One of the hallmarks of apoptosis is the fragmentation of chromosomal DNA into discrete, nucleosomal sized bands. […] We then examined the effects of the compounds on cell viability. Jurkat cells were incubated at different concentrations of compounds for 22 hr and then assayed by MTT test.
as §1
A general note: Tetrazolium dyes change colour on reduction, which living cells bring about.

Test [12] deals with human prostate epithelial cells (PREC). In words: Cell viability, PREC. It counts as cell-based.
Text: as §1

Test [13] relates to MDA-MB-453. In words: Cell viability, MDA-MB-453. It counts as cell-based. The note with it: MDA-MB-453, breast.
Text: as §1

In test [14] the test system is peripheral blood lymphocytes (PBL). In words: Cell viability, PBL. It counts as cell-based, human. The note with it: normal cell.
Text: as §3, §1

The subject of test [15] is CCRF-CEM. In words: Cell viability, CCRF-CEM. It counts as cell-based, human. The note with it: leukemia.
Text: as §3, §1

The subject of test [16] is BT-549. Description: Cell viability, BT-549. The test is classed as cell-based, human. The note with it: BT-549, breast.
Text: as §1

Test [17] has as its system procaspases-9 and -3. Description: Immunoblot for cleavage of procaspases-9 and -3 in S-100 cytoplasmic extracts. The test is classed as biochemical. The note with it: 20 μM compound, cyto c 1.25 μM. As to the method:
FIG. 2 depicts activity of compounds 1-5 in cell lysates. (A) Compound activation is cyto c dependent. Cyto c was titrated into S-100 cytoplasmic extracts with vehicle alone or 20 μM compound and procaspase-3 processing was assayed by capture ELISA. (B) Compound activation is dose-dependent. Compounds or vehicle were titrated into S-100 cytoplasmic extracts at a cyto c concentration of 1.25 μM and procaspases-3 processing was assayed by capture ELISA. (C) Immunoblot assay of compound-induced caspase activation. Samples at the 20 μM compound concentration in (B) were separated on SDS-polyacrylamide gel and transferred to polyvinyl membrane. The same membrane was cut and probed with antibodies to caspase-9, the large subunit of active caspase-3, and P13 kinase as a loading control. (D) Compounds act upstream of caspase-9 activation. Cyto c was titrated into caspase-3 immunodepleted extracts with or without 20 μM compounds and assayed by immunoblot for procaspase-9 processing.
To directly visualize the processing of procaspases induced by the compounds, samples at the 20 μM compound concentration in FIG. 2B were assayed by immunoblot for the cleavage of procaspases-9 and -3.
For orientation: Immunoblotting shows a protein as a band on a membrane.

One may read the IC50 as the concentration that inhibits the measured activity by half. By EC50 is commonly meant the concentration giving half of the maximal effect. Take `O=C1C(=O)N(Cc2ccc(Cl)c(Cl)c2)c2ccccc21` [Compound 2]: the IC50 in test [1] is 35 µM; in test [2] (SK-OV-3, ovarian, Apaf-1 deficient), over 50 µM; in [4], 40 µM; in test [5], 43 µM; in [6] (HMEC, normal cell), over 50 µM; in test [8], 44 µM. The IC50 is over 50 µM in test [9] (MCF-7, breast, caspase-3 deficient); 6 µM in test [10]; 4 µM in [11] (Jurkhat, leukemia, p53 +); over 50 µM in [12] (PREC, normal cell); over 50 µM in test [13]; 50 µM in test [14]. Moreover, the IC50 in test [15] came out at 9 µM; in test [16], 20 µM. For the same compound, the effect on cells entry in [2] (SK-OV-3, deficient in Apaf-1 activity) is listed as “no effect”; in test [6] (HMEC cells, up to 50 μM), “no effect except at the highest concentration”; in [9] (MCF-7, deficient in caspase-3 activity), “no effect”; in test [12] (PREC cells, up to 50 μM) it was “no effect except at the highest concentration”. The “cell killing after silencing of Apaf-1” value in [3] is recorded as “resistance”. The “effect on cyto c activation curve of procaspase-3 processing” value in test [7] was “shifted the activation curve to the left”. The EC50 in test [11] (Jurkat, 22 hr, MTT test, read-out: EC50 cell killing) was about 5 µM.
For the compound `O=C(NCc1ccc(Cl)c(Cl)c1)OC1CCc2ccccc21` (stereo not shown) [Compound 4], the “processing of procaspases-9 and -3” value in test [17] is given as “limited processing”.
